Among the test systems are RXF 393 renal; COLO 205 colon; SK-MEL-2 melanoma; SN12C renal; UACC-257 melanoma; 786-0 renal; OVCAR-8 ovarian; M14 melanoma; DU-145 prostate.
What all share (test): inhibition of tumour cell growth, NCI panel, 48 h

Each structure is given as a SMILES string.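 The compound was tested at five concentrations on cells cultured in 96-well plates, with a 48-hour exposure period. The concentration for 50% growth inhibition is given as GI50. TGI: concentration producing complete growth inhibition.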 A value given as a limit tells only on which side of the number the result lay.

With `COc1ccc(-c2cc(C(=O)Nc3cccc(C(F)(F)F)c3)[nH]c(=S)n2)cc1`, the TGI in the experiment on RXF 393 renal, with COLO 205 colon, in the experiment on SK-MEL-2 melanoma, in the experiment with SN12C renal, in the experiment on UACC-257 melanoma and in the experiment on 786-0 renal was above 100 µM in each case. For the same molecule, the TGI in the experiment with OVCAR-8 ovarian and in the experiment on M14 melanoma was above 100 µM throughout.
For `COc1ccc(CNc2cc(OC)cc(OC)c2)cc1`, the TGI with RXF 393 renal was above 100 µM; in the experiment with COLO 205 colon, above 100 µM; in the experiment on SK-MEL-2 melanoma it was above 100 µM; in the experiment on SN12C renal it was above 100 µM; with UACC-257 melanoma, above 100 µM; in the experiment with 786-0 renal, above 96.2 µM. Moreover, the TGI in the experiment with OVCAR-8 ovarian and with M14 melanoma was above 100 µM throughout. Further, in the experiment on SN12C renal, the GI50 was above 70.1 µM.
Regarding `O=CC1=CCCC2(C1)OCCO2`, the TGI with RXF 393 renal, in the experiment on COLO 205 colon, in the experiment on SK-MEL-2 melanoma, in the experiment with SN12C renal, in the experiment with UACC-257 melanoma and in the experiment with 786-0 renal was above 100 µM throughout. Moreover, the TGI with OVCAR-8 ovarian and in the experiment on M14 melanoma was above 100 µM in each case.
Consider `CC(=O)O[C@]1(C(C)=O)CC[C@H]2[C@@H]3C[C@H](C)C4=CC(=O)C=C[C@]4(C)[C@@]3(F)[C@@H](O)C[C@@]21C`, for which the TGI in the experiment with RXF 393 renal, with COLO 205 colon, in the experiment on UACC-257 melanoma, with 786-0 renal and with M14 melanoma was above 100 µM each time.
Consider `CC(C)(C)c1nc2c(o1)C(=Nc1ccccc1)c1ccccc1C2=O`, for which the TGI in the experiment with RXF 393 renal was 14.7 µM; in the experiment on COLO 205 colon it was 63 µM; with SK-MEL-2 melanoma, 6.99 µM; in the experiment on SN12C renal it was 14.4 µM; in the experiment with UACC-257 melanoma it was 4.45 µM; with 786-0 renal it was 64.3 µM. For the same molecule, the TGI in the experiment with OVCAR-8 ovarian was 26.2 µM; in the experiment with M14 melanoma it was 6.1 µM.
`N=C(N)/N=C(/C=C/c1ccccc1)CC1OC(=O)c2ccccc21` (configuration not stated): the TGI with RXF 393 renal, with COLO 205 colon, in the experiment with SK-MEL-2 melanoma, in the experiment with SN12C renal, with UACC-257 melanoma and with 786-0 renal was above 100 µM in each case. The TGI with OVCAR-8 ovarian and with M14 melanoma was above 100 µM in each case.
As for `CCOC(C)OCC#CCCBr` (configuration not stated), the TGI in the experiment with RXF 393 renal, with COLO 205 colon, in the experiment on SK-MEL-2 melanoma, in the experiment on SN12C renal, with UACC-257 melanoma and with 786-0 renal was above 100 µM each time. Also, the TGI in the experiment with OVCAR-8 ovarian and in the experiment with M14 melanoma was above 100 µM each time.
With `OCC(O)CC[CH2][Sn]([c]1ccccc1)([c]1ccccc1)[c]1ccccc1` (configuration not stated), the GI50 in the experiment with RXF 393 renal is 4.32 µM; in the experiment with COLO 205 colon, 19.5 µM; in the experiment with SK-MEL-2 melanoma, 15.3 µM; in the experiment with SN12C renal, 15.1 µM; in the experiment on UACC-257 melanoma, 18.4 µM; in the experiment on 786-0 renal, 14.8 µM. Moreover, the GI50 is 15.7 µM with OVCAR-8 ovarian and 14.2 µM in the experiment with M14 melanoma. In addition, the TGI with RXF 393 renal amounted to 19.7 µM; in the experiment on COLO 205 colon it was 35.3 µM; in the experiment with SK-MEL-2 melanoma, 29 µM; in the experiment on SN12C renal, 30.8 µM; in the experiment on UACC-257 melanoma it was 35.8 µM; with 786-0 renal, 28.2 µM. Further, the results for the TGI in the experiment with OVCAR-8 ovarian and with M14 melanoma were 31.5 µM and 31 µM, respectively.
Consider `CCOC(=O)C1NCCc2c1[nH]c1ccccc21` (configuration not stated), for which the TGI in the experiment on RXF 393 renal, in the experiment with COLO 205 colon, in the experiment with SN12C renal, with UACC-257 melanoma, with 786-0 renal and with OVCAR-8 ovarian was above 10 µM in each case. For the same molecule, the TGI with DU-145 prostate and with M14 melanoma was above 10 µM throughout.
Regarding `COc1nc(OC)c2c(=O)oc(-c3ccccc3)cc2n1`, the TGI in the experiment on RXF 393 renal, with SK-MEL-2 melanoma, in the experiment on SN12C renal, in the experiment with UACC-257 melanoma, with 786-0 renal and in the experiment on OVCAR-8 ovarian was above 100 µM each time.
For `O=c1cc2n(c(=O)[nH]1)C1OC(C(O)C1O)[C@@H]2CCO` (some centres not stated), the TGI with RXF 393 renal, with SK-MEL-2 melanoma, in the experiment with SN12C renal, with UACC-257 melanoma, with 786-0 renal and in the experiment on OVCAR-8 ovarian was above 100 µM each time. In the experiment with M14 melanoma, this molecule showed a TGI above 100 µM.
As for `CC(NC(=O)c1ccccc1)C(=O)N(Cc1ccccc1)Cc1ccccc1` (configuration not stated), the TGI with RXF 393 renal was 98.4 µM; in the experiment on COLO 205 colon it was 40.8 µM; in the experiment with SK-MEL-2 melanoma, 56.3 µM; in the experiment on SN12C renal it was above 100 µM; in the experiment on UACC-257 melanoma, above 100 µM; in the experiment on 786-0 renal, above 100 µM. The same molecule yielded a TGI in the experiment with M14 melanoma of 39.1 µM.
Consider `O=[N+]([O-])c1ccccc1S(=O)c1ccccc1` (configuration not stated), for which the TGI in the experiment on RXF 393 renal, in the experiment on SK-MEL-2 melanoma, in the experiment with SN12C renal, in the experiment with UACC-257 melanoma, in the experiment with 786-0 renal and in the experiment on OVCAR-8 ovarian was above 100 µM throughout. This molecule came in with a TGI with M14 melanoma above 100 µM.
As for `O=C1CCC2(c3ccc(F)cc3)Nc3ccccc3N12` (configuration not stated), the TGI in the experiment with RXF 393 renal, in the experiment with COLO 205 colon, in the experiment on SK-MEL-2 melanoma, in the experiment with SN12C renal, in the experiment with UACC-257 melanoma and in the experiment on 786-0 renal was above 100 µM in each case. In addition, the TGI in the experiment on OVCAR-8 ovarian and in the experiment on M14 melanoma was above 100 µM in each case.
For `Cc1cccc(C)c1NC(=O)CCC(=O)NNC(=O)c1cc(O)c2ccccc2c1`, the TGI with RXF 393 renal is above 100 µM; in the experiment with COLO 205 colon, 49 µM; with SN12C renal it was above 100 µM; in the experiment on UACC-257 melanoma, above 100 µM; in the experiment with 786-0 renal it was above 100 µM; with OVCAR-8 ovarian, 87.4 µM. Moreover, the TGI in the experiment with M14 melanoma is above 100 µM.
Turning to `COC(=O)OCC1OC(N2C(=O)NC(=O)C(I)C2N=[N+]=[N-])CC1OC(=O)OC` (configuration not stated), the TGI in the experiment on RXF 393 renal, in the experiment on COLO 205 colon, in the experiment on SN12C renal, in the experiment with UACC-257 melanoma, in the experiment with 786-0 renal and with OVCAR-8 ovarian was above 100 µM throughout. In the experiment on M14 melanoma, the TGI is above 100 µM.
